Source: ChEMBL document CHEMBL3877316, “Synthesis of pharmacologically important naphthoquinones and anticancer activity of 2-benzyllawsone through DNA topoisomerase-II inhibition” (Bioorg Med Chem, 2017)

Legend:
Mus musculus [1] = test: Acute toxicity in Swiss albino mouse assessed as body weight at 5 mg/kg, po qd administered as single dose for 7 days (reference value: 27.73 +/- 0.94 g); type: organism-based; details: in vivo, 168 h
Mus musculus [2] = test: Acute toxicity in Swiss albino mouse assessed as serum ALP level at 5 mg/kg, po qd administered as single dose for 7 days (reference value: 292.13 +/- 40.29 U/L); type: organism-based; details: in vivo, 168 h
Mus musculus [3] = test: Acute toxicity in Swiss albino mouse assessed as changes in absolute weight of lungs up to 1000 mg/kg, po qd administered as single dose for 7 days; type: organism-based; details: in vivo, 168 h
Mus musculus [4] = test: Acute toxicity in Swiss albino mouse assessed as serum creatinine level at 50 mg/kg, po qd administered as single dose for 7 days (reference value: 0.09 +/- 0.01 mg/dl); type: organism-based; details: in vivo, 168 h
Mus musculus [5] = test: Acute toxicity in Swiss albino mouse assessed as serum ALP level at 1000 mg/kg, po qd administered as single dose for 7 days (reference value: 292.13 +/- 40.29 U/L); type: organism-based; details: in vivo, 168 h
Mus musculus [6] = test: Acute toxicity in Swiss albino mouse assessed as effect on basophil count up to 1000 mg/kg, po qd administered as single dose for 7 days; type: organism-based; details: in vivo, 168 h
Mus musculus [7] = test: Acute toxicity in Swiss albino mouse assessed as changes in absolute weight of heart up to 1000 mg/kg, po qd administered as single dose for 7 days; type: organism-based; details: in vivo, 168 h
Mus musculus [8] = test: Acute toxicity in Swiss albino mouse assessed as mortality up to 1000 mg/kg, po qd administered as single dose for 7 days; type: organism-based; details: in vivo, 168 h
[9] = Antiproliferative activity against human DU145 cells after 48 hrs by SRB assay; type: functional, cell-based; details: DU-145, 48 h
Mus musculus [10] = test: Acute toxicity in Swiss albino mouse assessed as changes in gait up to 1000 mg/kg, po qd administered as single dose for 7 days; type: organism-based; details: in vivo, 168 h
Mus musculus [11] = test: Acute toxicity in Swiss albino mouse assessed as serum protein level at 1000 mg/kg, po qd administered as single dose for 7 days (reference value: 2.91 +/- 0.31 mg/ml); type: organism-based; details: in vivo, 168 h
Mus musculus [12] = test: Acute toxicity in Swiss albino mouse assessed as serum SGPT level at 5 mg/kg, po qd administered as single dose for 7 days (reference value: 23.06 +/- 1.92 U/L); type: organism-based; details: in vivo, 168 h
Mus musculus [13] = test: Acute toxicity in Swiss albino mouse assessed as serum haemoglobin level at 300 mg/kg, po qd administered as single dose for 7 days (reference value: 13.29 +/- 0.46 g/dl); type: organism-based; details: in vivo, 168 h
Mus musculus [14] = test: Acute toxicity in Swiss albino mouse assessed as serum albumin level at 5 mg/kg, po qd administered as single dose for 7 days (reference value: 2.49 +/- 0.17 g/dl); type: organism-based; details: in vivo, 168 h
Mus musculus [15] = test: Acute toxicity in Swiss albino mouse assessed as serum SGPT level at 50 mg/kg, po qd administered as single dose for 7 days (reference value: 23.06 +/- 1.92 U/L); type: organism-based; details: in vivo, 168 h
Mus musculus [16] = test: Acute toxicity in Swiss albino mouse assessed as serum triglycerides level at 1000 mg/kg, po qd administered as single dose for 7 days (reference value: 107.9 +/- 10.7 mg/dl); type: organism-based; details: in vivo, 168 h
Mus musculus [17] = test: Acute toxicity in Swiss albino mouse assessed as serum cholesterol level at 300 mg/kg, po qd administered as single dose for 7 days (reference value: 68.37 +/- 4.42 mg/dl); type: organism-based; details: in vivo, 168 h
Mus musculus [18] = test: Acute toxicity in Swiss albino mouse assessed as serum haemoglobin level at 50 mg/kg, po qd administered as single dose for 7 days (reference value: 13.29 +/- 0.46 g/dl); type: organism-based; details: in vivo, 168 h
Mus musculus [19] = test: Acute toxicity in Swiss albino mouse assessed as serum creatinine level at 1000 mg/kg, po qd administered as single dose for 7 days (reference value: 0.09 +/- 0.01 mg/dl); type: organism-based; details: in vivo, 168 h
[20] = Antiproliferative activity against HEK293 cells after 48 hrs by SRB assay; type: cell-based; details: Homo sapiens, HEK293, 48 h
Mus musculus [21] = test: Acute toxicity in Swiss albino mouse assessed as serum ALP level at 300 mg/kg, po qd administered as single dose for 7 days (reference value: 292.13 +/- 40.29 U/L); type: organism-based; details: in vivo, 168 h
Mus musculus [22] = test: Acute toxicity in Swiss albino mouse assessed as serum albumin level at 50 mg/kg, po qd administered as single dose for 7 days (reference value: 2.49 +/- 0.17 g/dl); type: organism-based; details: in vivo, 168 h
Mus musculus [23] = test: Acute toxicity in Swiss albino mouse assessed as serum creatinine level at 5 mg/kg, po qd administered as single dose for 7 days (reference value: 0.09 +/- 0.01 mg/dl); type: organism-based; details: in vivo, 168 h
Mus musculus [24] = test: Acute toxicity in Swiss albino mouse assessed as serum SGOT level at 1000 mg/kg, po qd administered as single dose for 7 days (reference value: 34.32 +/- 3.78 U/L); type: organism-based; details: in vivo, 168 h
Mus musculus [25] = test: Acute toxicity in Swiss albino mouse assessed as serum haemoglobin level at 1000 mg/kg, po qd administered as single dose for 7 days (reference value: 13.29 +/- 0.46 g/dl); type: organism-based; details: in vivo, 168 h
Mus musculus [26] = test: Acute toxicity in Swiss albino mouse assessed as serum ALP level at 50 mg/kg, po qd administered as single dose for 7 days (reference value: 292.13 +/- 40.29 U/L); type: organism-based; details: in vivo, 168 h
Mus musculus [27] = test: Acute toxicity in Swiss albino mouse assessed as serum albumin level at 300 mg/kg, po qd administered as single dose for 7 days (reference value: 2.49 +/- 0.17 g/dl); type: organism-based; details: in vivo, 168 h
[28] = Antiproliferative activity against human A549 cells after 48 hrs by SRB assay; type: functional, cell-based; details: A549, 48 h
Mus musculus [29] = test: Acute toxicity in Swiss albino mouse assessed as serum WBC level at 1000 mg/kg, po qd administered as single dose for 7 days (reference value: 8.64 +/- 0.42 10^3/mm3); type: organism-based; details: in vivo, 168 h
Mus musculus [30] = test: Acute toxicity in Swiss albino mouse assessed as body weight at 300 mg/kg, po qd administered as single dose for 7 days (reference value: 27.73 +/- 0.94 g); type: organism-based; details: in vivo, 168 h
Mus musculus [31] = test: Acute toxicity in Swiss albino mouse assessed as effect on monocyte count up to 1000 mg/kg, po qd administered as single dose for 7 days; type: organism-based; details: in vivo, 168 h
Mus musculus [32] = test: Acute toxicity in Swiss albino mouse assessed as serum cholesterol level at 5 mg/kg, po qd administered as single dose for 7 days (reference value: 68.37 +/- 4.42 mg/dl); type: organism-based; details: in vivo, 168 h
Mus musculus [33] = test: Acute toxicity in Swiss albino mouse assessed as changes in absolute weight of liver up to 1000 mg/kg, po qd administered as single dose for 7 days; type: organism-based; details: in vivo, 168 h
Mus musculus [34] = test: Acute toxicity in Swiss albino mouse assessed as changes in relative weight of liver up to 1000 mg/kg, po qd administered as single dose for 7 days; type: organism-based; details: in vivo, 168 h
Mus musculus [35] = test: Acute toxicity in Swiss albino mouse assessed as body weight at 50 mg/kg, po qd administered as single dose for 7 days (reference value: 27.73 +/- 0.94 g); type: organism-based; details: in vivo, 168 h
Mus musculus [36] = test: Acute toxicity in Swiss albino mouse assessed as serum RBC level at 5 mg/kg, po qd administered as single dose for 7 days (reference value: 9.07 +/- 1.13 million/mm3); type: organism-based; details: in vivo, 168 h

## O=C1C=C(OCc2ccccc2)C(=O)c2ccccc21
Mus musculus [1]
  Activity: 26.34 g
Mus musculus [2]
  Activity: 307.74 U/L
Mus musculus [3]
  Activity: Non-Toxic
Mus musculus [4]
  Activity: 0.16 mg/dL
Mus musculus [5]
  Activity: 385.91 U/L
Mus musculus [6]
  Activity: Non-Toxic
Mus musculus [7]
  Activity: Non-Toxic
Mus musculus [8]
  Activity: Non-Toxic
[9]
  IC50: 10.6 µM
Mus musculus [10]
  Activity: Non-Toxic
Mus musculus [11]
  Activity: 2.95 mg/mL
Mus musculus [12]
  Activity: 19.16 U/L
Mus musculus [13]
  Activity: 13.42 g/dL
Mus musculus [14]
  Activity: 2.56 g/dL
Mus musculus [15]
  Activity: 18.02 U/L
Mus musculus [16]
  Activity: 127.4 mg/dL
Mus musculus [17]
  Activity: 45.62 mg/dL
Mus musculus [18]
  Activity: 13.26 g/dL
Mus musculus [19]
  Activity: 0.16 mg/dL
[20]
  IC50: > 150 µM
Mus musculus [21]
  Activity: 386.48 U/L
Mus musculus [22]
  Activity: 2.7 g/dL
Mus musculus [23]
  Activity: 0.14 mg/dL
Mus musculus [24]
  Activity: 31.68 U/L
Mus musculus [25]
  Activity: 13.28 g/dL
Mus musculus [26]
  Activity: 304.24 U/L
Mus musculus [27]
  Activity: 2.92 g/dL
[28]
  IC50: 6.83 µM
Mus musculus [29]
  Activity: 8.7 ×10³ /mm3
Mus musculus [30]
  Activity: 27.09 g
Mus musculus [31]
  Activity: Non-Toxic
Mus musculus [32]
  Activity: 65.28 mg/dL
Mus musculus [33]
  Activity: Non-Toxic
Mus musculus [34]
  Activity: Non-Toxic
Mus musculus [35]
  Activity: 26.76 g
Mus musculus [36]
  Activity: 8.67 million/mm3
